Experimental data from patent US6300350A, “Treatment of emphysema using RARy selective retinoid agonists” (priority 2000, dated 2001).

Assays:
[1] = tested on: tropoelastin gene; assay: RAR transactivation of steady state tropoelastin gene in normal human lung fibroblasts (CCD-16Lu); format: cell-based
Procedure: Transactivation of the tropoelastin gene in normal human lung fibroblasts (CCD-16Lu) was performed as described below. Cells were grown to confluence at which time fresh media +/- ATRA or selective retiniod was added to the basal culture. ATRA and/or selective retiniods were used at a concentration of 1×10^-7 M. The cell layer was lysed using a guanidinium-based buffer (TRIZOL/Sigma) for RNA extraction and analysis. Amplification of tropoelastin and GAPDH RNA was performed by standard quantitative RT-PCR (TAQMAN, Perken/Elmer) using appropriate selective primers. Tropo-elastin gene expression was normalized to the expression of standard house-keeping gene (GAPDH).
Samples were run in triplicate.

[2] = tested on: elastase-induced emphysema; assay: Alveolar repair in rat model of elastase-induced emphysema, intraperitoneal; format: in vivo, male Sprague Dawley rats; design: Alveolar Area: unit not given here
Procedure: Animals were divided into treatment groups of approximately eight. […] Three weeks post injury ATRA or a RAR selective agonist was dissolved in DMSO (20 mg/ml) and stored at -20 C. Fresh working stocks were prepared fresh daily by dilution in corn oil to a final concentration of 2 mg/ml. […] Control groups were challenged with elastase and 21 days later treated with Vehicle (DMSO/PBS) for 14 days. Animals were sacrificed 24 hours after the last dose of by exsanguination under deep anesthesia. Blood was collected at time of exanguination for analysis of changes in blood chemistry from respective treatments. The lungs were inflated with 10% neutral buffered formalin by intratracheal instillation at a constant rate (1 ml/gram body mass/min). The lung was excised and immersed in fixative for 24 hours prior to processing. Standard methods were used to prepare 5 um paraffin sections. Sections were stained with Hematoxylin and Eosin (H%E). Computerized Morphometric analysis was performed to determine the average alveolar size and alveolar number.

[3] = tested on: experimental emphysema; assay: Alveolar repair in rat experimental emphysema, oral dosing; format: in vivo, rats; conditions: 1 mg/kg/PO daily for two weeks
Procedure: (§1) Three (3) weeks post injury animals were treated with vehicle (Capmul solution) or retinoids prepared in Capmul and dosed orally at 1, 3, and 10 mg/kg body weight. Animals were treated for 14 days prior to termination of study.
Dosage was at 1 mg/kg/PO daily for two weeks.

[4] = Plasma triglyceride levels in rats; format: in vivo; conditions: plasma, 1 mg/kg/PO daily for two weeks
Procedure: as §1, with “Experimental emphysema was induced in rats as described in Example 2. Three” for “Three”, “study. Lung harvest and blood collection was performed as described in Example 2.” for “study.”
Quantitation of triglycerides contained in rat plasma was performed after using established procedures in a contact clinical laboratory facility. Briefly, plasma triglycerides were converted to dihdroxyacetone and H2 O2, by sequential treatment of plasma with lipase and glycerokinase according directions described by manufacturer of triglycerides/GPO kit (Boehringer Mannheim #1488872). H2 02 was quantitated calorimetrically in a Hitachi 911 Chemistry Analyzer. In rats normal triglyceride levels are 75-175 mg/dl.
Dosage was at 1 mg/kg/PO daily for two weeks. […] Therefore, it appears that RARα selective activity is linked to elevated triglyceride levels.

[5] = tested on: alveolar septation; conditions: postnatal administration; newborn rats; listed as ATRA; cited from earlier work
[6] = tested on: emphysema; conditions: animal models of emphysema; cited from earlier work
[7] = tested on: RAR subtypes; conditions: cited from earlier work
[8] = tested on: RXR receptors; conditions: cited from earlier work

CC1=C(/C=C/C(C)=C/C=C/C(C)=C/C(=O)O)C(C)(C)CCC1 [RAR Agonist 4, All-trans retinoic acid]
Tropo-elastin Expression ([1]; CCD-16Lu, 1×10^-7 M, RT-PCR, triplicate, untreated control 30.90): 35.50 (Elastin/GAPDH) × 10^5 | tropoelastin gene induction (in words) ([1]; human lung fibroblasts, compared to the control): slightly induces tropoelastin gene induction | % Repair ([2]; 0.5 mg/kg ip once daily, from 21 days post injury, 14 days): 50% | Alveolar Area ([2]; 0.5 mg/kg ip once daily, from 21 days post injury, 14 days, naive 1637 +/- 153, elastase + vehicle 3570 +/- 319): 2607 +/- 191 | alveolar repair (in words) ([2]; elastase-treated rats, 0.5 mg/kg ip): induces alveolar repair, reversing the alveolar destruction caused by treatment with elastase | % Repair [3]: 37.6% | triglyceride levels (in words) [4]: either on the high end of normal or elevated | [Triglyceride] ([4]; normal rat 75-175 mg/dl): 182 mg/dL | number of alveoli / septation in lungs (in words) [5]: the capacity of dexamethasone to prevent the expression of CRBP and RARβ mRNA and subsequent alveolar septation in developing rat lung was abrogated by ATRA | formation of new alveoli and elastic recoil (in words) [6]: can induce formation of new alveoli and return elastic recoil to near normal | binding to the three RAR subtypes (in words) [7]: binds with approximately equal affinity to all the three RAR subtypes | binding to RXR receptors (in words) [8]: does not bind to the RXR receptors
